Entries after “also recorded” stand apart in the source; their conditions may differ.
Tests used:
[1] = tested on: filamentous bacteria isolate from a paper mill slime deposit (Flectobacillus species); assay: Synergy evaluation against filamentous bacteria (checkerboard, CFU on agar); type: cell-based
Protocol: Synergy evaluation against filamentous bacteria. The checkerboard method was used to determine the Fractional Inhibitory Index (FIC) as a predictor of synergy between Activated N-Compound and Busan 1210 (BBAB) against a pure isolate of filamentous bacteria cultured from a paper mill slime deposit. The isolate was identified by 16 S ribosomal RNA sequencing technique. Gene assembly and data analysis was performed using MicroSeq data analysis and identification software; the isolate was identified as a Flectobacillus species. Modified Basal Salts Buffer was inoculated with a suspension of the bacterial isolate to yield a final concentration of 1×10^5 cells per ml. Using a delay between additions, Busan 1210 (BBAB) was added 20 minutes prior to the addition of monochloramine (MCA). After a 3 hours exposure time, the treatments were sub-cultured onto Nutrient and Plate Count Agar (PCA) and incubated at 28° C. for 48 hours. The plates were examined for colony forming units (CFU) and compared to untreated control. [formula] Synergy is expressed as a Fractional inhibitory Concentration Index (FIC), calculated as follows: FIC=[A]/[a]+[B]/[b] where, [A] and [B]=MIC of the compounds A and B when in combination [a] and [b]=MIC of the compounds A and B when alone

[2] = tested on: Enterobacter aerogenes (ATCC 13048); assay: Evaluation of bactericidal activity (MIC, Bactometer impedance) with checkerboard synergy evaluation; type: cell-based; conditions: value <1 denotes synergistic activity
Protocol: A. Evaluation of Bactericidal Activity. This test method provides a technique for testing compounds for their effectiveness to control bacterial growth. MIC values represent the Minimum Inhibitory Concentration, defined as the lowest level of compound required to produce a 90% kill of a given organism.
Cell suspension from an 18 to 24 hour bacterial culture of Staphylococcus aureus (ATCC 6538) or Bacillus subtilis (ATCC 6633) or Enterobacter aerogenes (ATCC 13048) to attain a desired cell concentration. Using a McFarland nephelometer barium sulfate standard or some other suitable method, adjust the concentration of the bacterial suspension so that a final concentration of between 1×10^4 and 1×10^5 cells per ml is achieved when 100 μl of the inoculum is added to 5 ml of basal salts substrate. […]
• Bacterial growth in the tubes is measured by monitoring impedance levels on the Bactometer. • Dispense 1 ml aliquots of Modified WILKINS Chalgren Broth (Bactometer Media) into Bactometer wells; add 25 μl of treatment from the incubated tubes. […]
Synergy was measured by checkerboards dilutions (Yan and Hancock, 2001), in which one compound is diluted along the rows of test tubes and the other is diluted along the columns. […] The result is expressed as the Fractional Inhibitory Concentration Index (FIC), calculated as follows: […]

[3] = tested on: white water (ww) sample with a sulfite content of 12.8 ppm; assay: Synergism in the presence of sulfite: ATP measurement in white water, percent inhibition; type: cell-based; conditions: 10 min; BBAB 80 ppm active alone; ATP at 10 min; sulfite 12.8 ppm
Protocol: Synergism in the presence of sulfite. The effectiveness of the actives and the blend were evaluated in a white water (ww) sample with a sulfite content of 12.8 ppm. ATP measurements were performed in duplicate and percent inhibition calculated as a measure of antimicrobial efficacy. The raw data was converted to percent inhibition with use of the following formulation: % Inhibition=[(u−t)/u]×100 where: u=ATP value of untreated ww at time10 min t=ATP value of treated ww at time10 min.

[4] = cited from earlier work

NCl [MCA, monochloramine]
FIC ([1]; FIC=[A]/[a]+[B]/[b]): 1.0
MIC of compound when alone ([a] / [b]) ([1]; alone, 3 hours exposure, sub-cultured 28° C. for 48 hours): 10.0(a)

O=C(CBr)OC/C=C\COC(=O)CBr [BBAB, 1,4-bis(bromoacetoxy)-2-butene]
[A]/MICA + [B]/MICB (FIC index) [2]: 1.0
inhibition at 80 ppm [3]: 22.8%
solubility in isopropenol, n-butenol, glycerol, ethylene glycol, propylene glycol, and diethylene glycol ([4]; alcohols and glycols as listed): soluble
solubility in dimethylformamide and ethylene glycol monomethylether ([4]; dimethylformamide, ethylene glycol monomethylether): soluble
solubility in water ([4]; water): extremely low; also recorded: water insoluble

Reference: patent US20100173018A1, “Microbicidal Compositions Including Activated Nitrogenous Compound and 1,4-Bis(Bromoacetoxy)-2-Butene, and Methods Of Using The Same” (BUCKMAN LABORATORIES INTERNATIONAL, INC., priority 2009, published 2010)
